Data: US8246943B2, “Prebiotic composition” (Conopco, Inc., priority 2009, dated 2012)
Values joined by “and” are separate entries in the source; they are usually repeats but may differ in a detail not shown here. Identical values can stand only once.

Experiments:
Bifidobacteria [1] = experiment: 3 stage in vitro gut model, bacterial populations; assay type: cell-based
bifidobacteria [2] = details: background statement; cited from earlier work
[3] = system: Clostridia (C. histolyticum and C. perfringens); assay type: cell-based
[4] = system: Eubacterium rectale and Clostridium coccoides; experiment: 3 stage in vitro gut model, bacterial populations; assay type: cell-based
Bacteroides = experiment: 3 stage in vitro gut model, bacterial populations; assay type: cell-based
[5] = prebiotic effect of black tea flavonoid components (test not described); details: statement in the description, no test given
[6] = SS1 (steady state without test substrate), vessel 1
[7] = SS1 (steady state without test substrate), vessel 2
[8] = SS1 (steady state without test substrate), vessel 3
[9] = SS2 (steady state with substrate added daily), vessel 1
[10] = SS2 (steady state with substrate added daily), vessel 2
[11] = SS2 (steady state with substrate added daily), vessel 3

Inulin
Bifidobacteria population (Bifidobacteria [1]; [6]): 7.62 Log 10 cells/ml of culture fluid
Bifidobacteria population (Bifidobacteria [1]; [7]): 7.52 Log 10 cells/ml of culture fluid
Bifidobacteria population (Bifidobacteria [1]; [8]): 7.49 Log 10 cells/ml of culture fluid
prebiotic effect in gut model (in words) (Bifidobacteria [1]; SS1 vs SS2, 1.33 g digested black tea solids per day (2.40 g before digestion), 5 g/day inulin): achieved a similar effect
Bifidobacteria population (Bifidobacteria [1]; [9]): 8.45 Log 10 cells/ml of culture fluid
Bifidobacteria population (Bifidobacteria [1]; [10]): 8.26 Log 10 cells/ml of culture fluid
Bifidobacteria population (Bifidobacteria [1]; [11]): 8.15 Log 10 cells/ml of culture fluid
bifidobacteria in humans (bifidobacteria [2]): significantly increase bifidobacteria
Clostridia (C. histolyticum and C. perfringens) population [3]: 5.67 Log 10 cells/ml of culture fluid and 5.84 Log 10 cells/ml of culture fluid and 5.49 Log 10 cells/ml of culture fluid and 5.89 Log 10 cells/ml of culture fluid and 5.59 Log 10 cells/ml of culture fluid
Eubacterium rectale and Clostridium coccoides population [4, 6]: 9.14 Log 10 cells/ml of culture fluid
Eubacterium rectale and Clostridium coccoides population [4, 7]: 9.19 Log 10 cells/ml of culture fluid
Eubacterium rectale and Clostridium coccoides population [4, 8]: 9.17 Log 10 cells/ml of culture fluid
Eubacterium rectale and Clostridium coccoides population [4, 9]: 9.37 Log 10 cells/ml of culture fluid
Eubacterium rectale and Clostridium coccoides population [4, 10]: 9.28 Log 10 cells/ml of culture fluid
Eubacterium rectale and Clostridium coccoides population [4, 11]: 9.20 Log 10 cells/ml of culture fluid
Bacteroides population (Bacteroides; [6]): 7.23 Log 10 cells/ml of culture fluid
Bacteroides population (Bacteroides; [7]): 8.53 Log 10 cells/ml of culture fluid
Bacteroides population (Bacteroides; [8]): 8.35 Log 10 cells/ml of culture fluid
Bacteroides population (Bacteroides; [9]): 6.36 Log 10 cells/ml of culture fluid
Bacteroides population (Bacteroides; [10]): 8.81 Log 10 cells/ml of culture fluid
Bacteroides population (Bacteroides; [11]): 8.55 Log 10 cells/ml of culture fluid

catechins
prebiotic effect (in words) [5]: appear to reduce the prebiotic effect of thearubigins

fructo-oligosaccharides
bifidobacteria in humans (bifidobacteria [2]): significantly increase bifidobacteria

theaflavins
prebiotic effect (in words) [5]: little or no prebiotic effect
